Data: patent publication US20080027104A1, “Novel Crystalline Forms 2” (AstraZeneca AB, priority 2006, published 2008)

Tests used:
Format in all cases: physicochemical
[1] = Moisture adsorption on storage at 80% RH; details: stored at 80% RH (ambient)
Experimental: (§1) The crystalline forms may be further characterised by the presence of one or more of the additional properties listed below: • (i) for Form I • (I) when characterised by thermogravimetric analysis, a weight loss of approx. 0.8% occurs in the range from 25° C. up to 205° C., and/or • (II) when characterised by differential scanning calorimetry, at a heating rate of 10° C. per minute in a closed cup with a pinhole under flowing nitrogen, a melting temperature (Tm) having an onset at about 194° C. and/or an associated endotherm of melting of about 96 J/g; and/or • (III) when stored at 80% RH (ambient) less than 0.2% moisture is adsorbed. • (i) for Form II • (I) when characterised by thermogravimetric analysis, a weight loss of approx. 0.2% occurs in the range from 25° C. up to 205° C., and/or • (II) when characterised by differential scanning calorimetry, at a heating rate of 10° C. per minute in a closed cup with a pinhole under flowing nitrogen, a melting temperature (Tm) having an onset at about 193° C. and/or an associated endotherm of melting of about 105 J/g.

[2] = Thermogravimetric analysis of crystalline form; details: range from 25° C. up to 205° C.
Experimental: as §1

[3] = Thermodynamic stability of crystal form; details: crystallised from THF/ethanol

Row | moisture adsorbed [1] | weight loss by thermogravimetric analysis [2] | thermodynamic stability of crystal form [3] | Structure (SMILES)
1 | less than 0.2% | approx. 0.8% |  | CCOC(=O)c1cc(C#N)c(N2CCC(C(=O)NS(=O)(=O)Cc3ccccc3)CC2)nc1C [Form I, 6-(4-{[(benzylsulfonyl)amino]carbonyl}piperidin-1-yl)-5-cyano-2-methylnicotinic acid ethyl ester]
2 |  | approx. 0.2% | thermodynamically stable form | CCOC(=O)c1cc(C#N)c(N2CCC(C(=O)NS(=O)(=O)Cc3ccccc3)CC2)nc1C [Form II, 6-(4-{[(benzylsulfonyl)amino]carbonyl}piperidin-1-yl)-5-cyano-2-methylnicotinic acid ethyl ester]
